This data set can be described thus: Solubility by shake flask method in various media. Type of data set: physicochemical. The conditions noted are these: for Solubility: about 37° C., after 24 hours.

For `O=C(Nc1c(Cl)c[n+]([O-])cc1Cl)c1ccc(OC(F)F)c2oc3ccncc3c12.[Na]` [3,5-dichloro-4-(6-difluoromethoxybenzo[4,5]furo[3,2-c]pyridin-9-ylcarboxamido)-1-pyridiniumolate, sodium salt], the Solubility worked out at 8.81 mg/250 ml (0.1N HCl with 1% sodium lauryl sulphate); 9.17 mg/250 ml (0.1N HCl); 1.69 mg/250 ml (Acetate buffer pH 4.5); 4.81 mg/250 ml (Acetate buffer pH 4.5 with 0.1% SLS); 6.02 mg/250 ml (Citrate buffer pH 3.0); 8.6 mg/250 ml (Citrate buffer pH 3.0 with 1% Triton X). The Solubility (Water) stood at 0.68 mg/250 ml. Also, the “Solubility in water (in words)” value (water) is given as “poor solubility in water”.

The record behind these values is patent publication US20110160213A1, “PHARMACEUTICAL COMPOSITIONS FOR THE TREATMENT OF INFLAMMATORY AND ALLERGIC DISORDERS” (Glenmark Pharmaceuticals, S.A., priority 2007, published 2011).
